COc1ccc(C=O)cc1O
solubility (mole fraction)
Conditions | in ethanol | in ethyl acetate | in formic acid | in isobutanol | in isobutyl acetate | in isopropanol | in methanol | in methyl acetate | in n-butanol | in n-propanol
278.15 K | 0.0125 | 0.0203 | 0.0432 | 0.0086 | 0.015 | 0.0072 | 0.0156 | 0.0382 | 0.012 | 0.0186
283.15 K | 0.0153 | 0.0246 | 0.0486 | 0.0098 | 0.0165 | 0.0092 | 0.0188 | 0.0425 | 0.0149 | 0.0209
288.15 K | 0.0184 | 0.029 | 0.0571 | 0.0161 | 0.0184 | 0.0118 | 0.0231 | 0.0536 | 0.017 | 0.0242
293.15 K | 0.0227 | 0.0342 | 0.068 | 0.0192 | 0.0216 | 0.0149 | 0.0291 | 0.0633 | 0.0219 | 0.0284
298.15 K | 0.0279 | 0.0401 | 0.0832 | 0.0223 | 0.025 | 0.0186 | 0.0362 | 0.074 | 0.0253 | 0.0331
303.15 K | 0.0338 | 0.0478 | 0.101 | 0.0271 | 0.0305 | 0.0259 | 0.0445 | 0.0866 | 0.0352 | 0.04
308.15 K | 0.0429 | 0.0559 | 0.115 | 0.0338 | 0.034 | 0.0296 | 0.059 | 0.104 | 0.0445 | 0.0455
313.15 K | 0.0547 | 0.0655 | 0.137 | 0.042 | 0.0408 | 0.0386 | 0.0836 | 0.121 | 0.0542 | 0.0582
318.15 K | 0.0695 | 0.0806 | 0.165 | 0.0499 | 0.0509 | 0.0576 | 0.134 | 0.147 | 0.0641 | 0.0751

Source: BigSolDB 2.1
